Source: publication PMC8431030, “In Vitro and In Silico Evaluation of New 1,3,4-Oxadiazole Derivatives of Pyrrolo[3,4-d]pyridazinone as Promising Cyclooxygenase Inhibitors” (International Journal of Molecular Sciences, 2021)

Columns and labels:
COX-1 = target: T1, COX-1 (Ovis aries, UniProt P05979); assay: colorimetric COX peroxidase assay (Cayman […]), […] nm; assay type: biochemical; settings: read-out: IC50 [μM] (SD) / COX-1
T1 construct: gene PTGS1; kit is understood to hold ovine COX-1
T1 sequence (P05979 25-600): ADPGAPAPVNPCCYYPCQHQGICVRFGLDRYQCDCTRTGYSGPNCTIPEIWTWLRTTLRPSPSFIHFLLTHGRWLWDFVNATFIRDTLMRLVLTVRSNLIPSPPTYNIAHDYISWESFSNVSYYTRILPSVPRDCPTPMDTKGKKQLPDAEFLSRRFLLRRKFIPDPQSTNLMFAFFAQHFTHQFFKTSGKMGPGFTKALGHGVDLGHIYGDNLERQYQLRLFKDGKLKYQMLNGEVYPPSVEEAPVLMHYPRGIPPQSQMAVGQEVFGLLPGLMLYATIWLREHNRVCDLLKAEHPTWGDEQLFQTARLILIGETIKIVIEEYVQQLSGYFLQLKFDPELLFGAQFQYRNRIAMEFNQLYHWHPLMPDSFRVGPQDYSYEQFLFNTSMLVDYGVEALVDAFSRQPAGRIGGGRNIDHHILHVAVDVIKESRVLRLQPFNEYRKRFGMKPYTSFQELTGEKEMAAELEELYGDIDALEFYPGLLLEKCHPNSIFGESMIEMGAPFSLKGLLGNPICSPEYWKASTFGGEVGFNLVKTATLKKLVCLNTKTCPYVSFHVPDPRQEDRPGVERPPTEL

COX-2 = target: T2, COX-2 (Homo sapiens, UniProt P35354); assay: colorimetric COX peroxidase assay (Cayman […]), […] nm; assay type: biochemical; settings: read-out: IC50 [μM] (SD) / COX-2
T2 construct: gene PTGS2; kit is understood to hold human recombinant COX-2 (docking used PDB 4M11, not the assay protein)
T2 sequence (P35354 18-604): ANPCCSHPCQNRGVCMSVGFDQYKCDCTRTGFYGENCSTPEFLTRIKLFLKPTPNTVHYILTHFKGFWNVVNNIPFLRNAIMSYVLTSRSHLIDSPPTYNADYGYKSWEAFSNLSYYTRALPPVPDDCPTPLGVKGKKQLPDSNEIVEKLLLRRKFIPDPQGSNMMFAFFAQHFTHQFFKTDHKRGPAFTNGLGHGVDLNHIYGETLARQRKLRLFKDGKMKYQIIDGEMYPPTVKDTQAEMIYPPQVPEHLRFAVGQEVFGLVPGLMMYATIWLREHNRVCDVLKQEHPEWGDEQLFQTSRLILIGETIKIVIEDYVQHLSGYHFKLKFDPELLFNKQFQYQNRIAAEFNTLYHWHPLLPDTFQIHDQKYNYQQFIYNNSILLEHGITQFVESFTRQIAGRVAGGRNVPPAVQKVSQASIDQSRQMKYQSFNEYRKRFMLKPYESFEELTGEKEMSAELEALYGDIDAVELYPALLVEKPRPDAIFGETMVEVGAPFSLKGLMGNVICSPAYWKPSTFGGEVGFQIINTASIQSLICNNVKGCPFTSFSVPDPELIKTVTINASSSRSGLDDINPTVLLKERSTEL

Question: Which IC50 (COX-1) does the source give for `Cc1c2c(OCc3n[nH]c(=S)o3)nn(C)c(=O)c2c(C)n1-c1ccccc1` [1a] here?
Answer: Its IC50 is 130 µM.

Question: And the IC50 (COX-2)?
Answer: Its IC50 is 43.6 µM.

Question: `CCCCn1c(C)c2c(OCc3n[nH]c(=S)o3)nn(C)c(=O)c2c1C` [1b] was tested. Which IC50 (COX-1) did it give?
Answer: The IC50 was 138 µM.

Question: And the IC50 (COX-2)?
Answer: The IC50 was 63.4 µM.

Question: Which results are given for `Cc1ccc(C)c(N2CCN(Cn3nc(COc4nn(C)c(=O)c5c(C)n(-c6ccccc6)c(C)c45)oc3=S)CC2)c1` [2a, 3,5,7-Trimethyl-6-phenyl-1-[[4-[(4-(2,5-dimethylphenyl)piperazin-1-yl)methyl]-2-thioxo-1,3,4-oxadiazol-5-yl]methoxy]pyrrolo[3,4-d]pyridazin-4-one]?
Answer: IC50 (COX-1): 50.3 µM; IC50 (COX-2): 49.7 µM

Question: With `CCCCn1c(C)c2c(OCc3nn(CN4CCN(c5cc(C)ccc5C)CC4)c(=S)o3)nn(C)c(=O)c2c1C` [2b, 3,5,7-Trimethyl-6-butyl-1-[[4-[(4-(2,5-dimethylphenyl)piperazin-1-yl)methyl]-2-thioxo-1,3,4-oxadiazol-5-yl]methoxy]pyrrolo[3,4-d]pyridazin-4-one] as the compound, how does the IC50 (COX-1) read?
Answer: Its IC50 is 50 µM.

Question: And the IC50 (COX-2)?
Answer: Its IC50 is 49.4 µM.

Question: For `Cc1c2c(OCc3nn(CN4CCN(c5ccc(F)cc5F)CC4)c(=S)o3)nn(C)c(=O)c2c(C)n1-c1ccccc1` [3a, 3,5,7-Trimethyl-6-phenyl-1-[[4-[(4-(2,4-difluorophenyl)piperazin-1-yl)methyl]-2-thioxo-1,3,4-oxadiazol-5-yl]methoxy]pyrrolo[3,4-d]pyridazin-4-one], which IC50 (COX-1) is on record?
Answer: Its IC50 is 50.3 µM.

Question: And the IC50 (COX-2)?
Answer: The IC50 was 49.7 µM.

Question: How did the IC50 (COX-1) turn out when `CCCCn1c(C)c2c(OCc3nn(CN4CCN(c5ccc(F)cc5F)CC4)c(=S)o3)nn(C)c(=O)c2c1C` [3b] was run?
Answer: Its IC50 is 54.3 µM.

Question: And the IC50 (COX-2)?
Answer: The IC50 was 56 µM.

Question: Which results are given for `Cc1c2c(OCc3nn(CN4CCN(c5ccc(Cl)c(Cl)c5)CC4)c(=S)o3)nn(C)c(=O)c2c(C)n1-c1ccccc1` [4a, 3,5,7-Trimethyl-6-phenyl-1-[[4-[(4-(3,4-dichlorophenyl)piperazin-1-yl)methyl]-2-thioxo-1,3,4-oxadiazol-5-yl]methoxy]pyrrolo[3,4-d]pyridazin-4-one]?
Answer: IC50 (COX-1): 50.2 µM; IC50 (COX-2): 49.2 µM

Question: For `CCCCn1c(C)c2c(OCc3nn(CN4CCN(c5ccc(Cl)c(Cl)c5)CC4)c(=S)o3)nn(C)c(=O)c2c1C` [4b, 3,5,7-Trimethyl-6-butyl-1-[[4-[(4-(3,4-dichlorophenyl)piperazin-1-yl)methyl]-2-thioxo-1,3,4-oxadiazol-5-yl]methoxy]pyrrolo[3,4-d]pyridazin-4-one], which IC50 (COX-1) is on record?
Answer: The IC50 was 56.8 µM.

Question: What about the IC50 (COX-2) of the same compound?
Answer: Its IC50 is 57.3 µM.

Question: Which results are given for `Cc1ccc(C)c(N2CCN(C(=O)CSc3nnc(COc4nn(C)c(=O)c5c(C)n(-c6ccccc6)c(C)c45)o3)CC2)c1` [5a, 3,5,7-trimethyl-1-[[2-[2-oxo-2-(4-(2,5-dimethylphenyl)piperazin-1-yl)ethyl]sulfanyl-1,3,4-oxadiazol-5-yl]methoxy]-6-phenyl-pyrrolo[3,4-d]pyridazin-4-one]?
Answer: IC50 (COX-1): 53.2 µM; IC50 (COX-2): 50.1 µM

Question: Which results are given for `CCCCn1c(C)c2c(OCc3nnc(SCC(=O)N4CCN(c5cc(C)ccc5C)CC4)o3)nn(C)c(=O)c2c1C` [5b, 3,5,7-trimethyl-1-[[2-[2-oxo-2-(4-(2,5-dimethylphenyl)piperazin-1-yl)ethyl]sulfanyl-1,3,4-oxadiazol-5-yl]methoxy]-6-butyl-pyrrolo[3,4-d]pyridazin-4-one]?
Answer: IC50 (COX-1): 51.8 µM; IC50 (COX-2): 53.8 µM

Question: With `Cc1c2c(OCc3nnc(SCC(=O)N4CCN(c5ccc(F)cc5F)CC4)o3)nn(C)c(=O)c2c(C)n1-c1ccccc1` [6a, 3,5,7-trimethyl-1-[[2-[2-oxo-2-(4-(2,4-difluorophenyl)piperazin-1-yl)ethyl]sulfanyl-1,3,4-oxadiazol-5-yl]methoxy]-6-phenyl-pyrrolo[3,4-d]pyridazin-4-one] as the compound, how does the IC50 (COX-1) read?
Answer: The IC50 was 52.3 µM.

Question: And the IC50 (COX-2)?
Answer: Its IC50 is 50.2 µM.

Question: How did the IC50 (COX-1) turn out when `CCCCn1c(C)c2c(OCc3nnc(SCC(=O)N4CCN(c5ccc(F)cc5F)CC4)o3)nn(C)c(=O)c2c1C` [6b, 3,5,7-trimethyl-1-[[2-[2-oxo-2-(4-(2,4-difluorophenyl)piperazin-1-yl)ethyl]sulfanyl-1,3,4-oxadiazol-5-yl]methoxy]-6-butyl-pyrrolo[3,4-d]pyridazin-4-one] was run?
Answer: Its IC50 is 51.1 µM.

Question: And the IC50 (COX-2)?
Answer: The IC50 was 50.1 µM.

Question: What does the source list for `Cc1c2c(OCc3nnc(SCC(=O)N4CCN(c5ccc(Cl)c(Cl)c5)CC4)o3)nn(C)c(=O)c2c(C)n1-c1ccccc1` [7a, 3,5,7-trimethyl-1-[[2-[2-oxo-2-(4-(3,4-dichloro)piperazin-1-yl)ethyl]sulfanyl-1,3,4-oxadiazol-5-yl]methoxy]-6-phenyl-pyrrolo[3,4-d]pyridazin-4-one]?
Answer: IC50 (COX-1): 51.6 µM; IC50 (COX-2): 50.3 µM

Question: Which results are given for `CCCCn1c(C)c2c(OCc3nnc(SCC(=O)N4CCN(c5ccc(Cl)c(Cl)c5)CC4)o3)nn(C)c(=O)c2c1C` [7b, 3,5,7-trimethyl-1-[[2-[2-oxo-2-(4-(3,4-dichlorophenyl)piperazin-1-yl)ethyl]sulfanyl-1,3,4-oxadiazol-5-yl]methoxy]-6-butyl-pyrrolo[3,4-d]pyridazin-4-one]?
Answer: IC50 (COX-1): 50.9 µM; IC50 (COX-2): 49.5 µM
